Test results taken from patent publication EP4745134A1 (Jiangsu Yahong Meditech Co., Ltd., priority 2023, dated 2025).
Read-outs that look alike come from different tables or passages of the source.

Tests used:
PRMT5-MTA = PRMT5-MTA (Homo sapiens, UniProt O14744); assay: Enzymatic inhibitory activity against PRMT5-MTA (AlphaScreen); assay type: biochemical
Outline: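 PRMT5/[…] (1 nM) was preincubated for 30 min at room temperature with 1 µM […] and 2.5 µM SAM, then exposed to compound (10-point, 3-fold from 1000 nM) for 15 min at 23 °C. Histone H4 substrate (5 nM) was added and reacted for 45 min at 23 °C. Symmetric dimethyl-R3 H4 was detected by AlphaScreen and IC50 calculated.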

HCT116-WT cells = assay: Inhibitory activity against cell proliferation (CellTiter Glo, 6 days), HCT116-WT; assay type: cell-based; details: HCT116-WT cells, 6 days, CellTiter Glo, read-out: HCT116-WT IC50
Outline: (§1)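 Viability IC50s come from CellTiter Glo luminescence after 6 days' exposure to compound (8 concentrations, 4-fold steps, top 10000 nM), relative to DMSO wells. Cells were MTAP-KO or WT HCT116, seeded at 250 per well in McCoy's 5A with 10% FBS and incubated overnight before dosing.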

HCT116 MTAP KO cells = assay: Inhibitory activity against cell proliferation (CellTiter Glo, 6 days), HCT116 MTAP KO; assay type: cell-based; details: for IC50: HCT116 MTAP KO cells, 6 days, CellTiter Glo, read-out: HCT116 MTAP KO IC50; for Selectivity HCT 116-WT/ HCT116 MTAP KO: ratio of IC50 HCT116-WT / HCT116 MTAP KO
Outline: as §1

PRMT5-MTA, sequence (O14744 whole entry): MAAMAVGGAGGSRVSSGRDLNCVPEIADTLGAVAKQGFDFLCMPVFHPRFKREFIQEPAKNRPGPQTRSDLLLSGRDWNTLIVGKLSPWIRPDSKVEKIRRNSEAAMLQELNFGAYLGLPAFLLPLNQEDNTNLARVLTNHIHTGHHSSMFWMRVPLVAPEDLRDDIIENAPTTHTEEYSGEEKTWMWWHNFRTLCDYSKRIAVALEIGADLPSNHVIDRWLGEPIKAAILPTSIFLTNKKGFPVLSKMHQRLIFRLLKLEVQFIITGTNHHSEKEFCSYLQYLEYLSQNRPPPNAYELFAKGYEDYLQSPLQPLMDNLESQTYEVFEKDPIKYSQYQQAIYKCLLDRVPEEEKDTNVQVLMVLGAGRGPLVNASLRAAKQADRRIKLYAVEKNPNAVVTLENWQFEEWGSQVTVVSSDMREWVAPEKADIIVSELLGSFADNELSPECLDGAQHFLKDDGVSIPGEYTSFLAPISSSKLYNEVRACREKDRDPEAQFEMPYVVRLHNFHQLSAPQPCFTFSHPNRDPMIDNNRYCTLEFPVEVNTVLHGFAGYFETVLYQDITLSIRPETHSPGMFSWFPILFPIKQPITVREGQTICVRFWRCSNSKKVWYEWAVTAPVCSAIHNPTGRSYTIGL
PRMT5-MTA, sequence (Q9BQA1 whole entry partner): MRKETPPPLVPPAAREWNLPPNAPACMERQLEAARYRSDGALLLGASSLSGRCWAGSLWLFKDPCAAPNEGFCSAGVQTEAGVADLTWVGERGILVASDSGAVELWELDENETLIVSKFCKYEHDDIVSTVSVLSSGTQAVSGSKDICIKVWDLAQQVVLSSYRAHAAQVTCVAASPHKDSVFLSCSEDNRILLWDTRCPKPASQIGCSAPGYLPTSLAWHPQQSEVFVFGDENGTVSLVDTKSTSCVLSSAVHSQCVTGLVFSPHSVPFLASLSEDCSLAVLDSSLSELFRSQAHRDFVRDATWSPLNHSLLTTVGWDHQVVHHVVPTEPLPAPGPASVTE

SMILES	IC50 (PRMT5-MTA; read-out: IC50) [nM]	IC50 (HCT116-WT cells; 144 h) [nM]	IC50 (HCT116 MTAP KO cells; Homo sapiens, HCT-116, 144 h) [nM]	Selectivity HCT 116-WT/ HCT116 MTAP KO (HCT116 MTAP KO cells)	IC50 (HCT116-WT cells) [nM]	IC50 (HCT116 MTAP KO cells) [nM]	IC50 (PRMT5-MTA) [nM]
Cc1cc2nc(N)c3cnn(C)c3c2cc1C(=O)N1C[C@@H](C)CN1c1ncccc1F (single isomer, unassigned) [Example 464]	3.1	1090	17	64.06	–	–	–
Cc1cc2nc(N)c3cnn(C)c3c2cc1C(=O)N1C[C@H](C)CN1c1ncccc1F (single isomer, unassigned) [Example 465]	3.4	1040	23	45.35	–	–	–
CC1CN(C(=O)c2cc3c(cc2F)nc(N)c2cnn(C)c23)N(c2ncccc2F)C1 (single isomer, unassigned) [Example 466]	4.4	660	13	50.77	–	–	–
Cc1cc2cc(C(=O)N(Cc3ccc(C(F)(F)F)cn3)N(C)c3c(F)cccc3F)ccc2nc1N [Compound 116, 2-amino-N'-(2,6-difluorophenyl)-N',3-di methyl-N-((5-(trifluoromethyl)pyridin-2-yl)methyl)quinoline-6-carbohydrazide]	4.7	2950	78	37.85	–	–	–
Cc1cc2cc(C(=O)N(Cc3ccc(C(F)(F)F)cn3)N(C)c3ncc4[nH]ccc4n3)ccc2nc1N [Compound 120, 2-amino-N',3-dimethyl-N'-(5H-pyrrolo[3,2-d]pyrimidin-2-yl)-N-((5-(trifluoromethyl)pyridin-2-yl)methyl)quinoline-6-carbo hydrazide]	2.5	170	10	17.00	–	–	–
Cc1cc2cc(C(=O)N(Cc3ccc(C(F)(F)F)cn3)N(C)c3ncc4c(ccn4C)n3)ccc2nc1N [Compound 127, 2-amino-N',3-dimethyl-N'-(5-methyl-5H-pyrrolo[3,2-d]pyrimidin-2-yl)-N-((5-(trifluoromethyl)pyridin-2-yl)methyl)quinoline-6-carbohydrazide]	4.9	1900	115	16.55	–	–	–
Cc1cc2cc(C(=O)N(Cc3ccc(N4CC(F)(F)C4)cn3)N(C)c3ncccn3)ccc2nc1N [Compound 225, 2-amino-N-((5-(3,3-difluoroazetidin-1-yl)pyridin-2-yl)methyl)-N',3-dimethyl-N'-(pyrimidin-2-yl)quinoline-6-carbohydrazide]	16	2650	204	13.00	–	–	–
Cc1cc2cc(C(=O)N(Cc3ccc4ncccc4n3)N(C)c3ncccn3)ccc2nc1N [Compound 283, N-((1,5-naphthyridin-2-yl)methyl)-2-ami no-N',3-dimethyl-N'-(pyrimidin-2-yl)qui noline-6-carbohydrazide]	1.7	2710	244	11.11	–	–	–
Cc1cnc(N2CC(C)CN2C(=O)c2cc3c(cc2C)nc(N)c2cnn(C)c23)c(F)c1 (centres unmarked) [Compound 490, (4-amino-1,7-dimethyl-1H-pyrazolo[4,3-c]quinolin-8-yl)(2-(3-fluoro-5-methylpyridin-2-yl)-4-methylpyrazolidin-1-yl)metha none]	5.1	1010	26	38.96	–	–	–
[2H]C([2H])([2H])n1ncc2c(N)nc3cc(Cl)c(C(=O)N4CC(C)CN4c4ncccc4F)cc3c21 (centres unmarked) [Compound 508, (4-amino-7-chloro-1-(methyl-D3)-1H-pyrazolo[4,3-c]quinolin-8-yl)(2-(3-fluoropyridin-2-yl)-4-methylpyrazolidin-1-yl)meth anone]	16.6	2710	114	23.78	–	–	–
[2H]C([2H])([2H])N(c1ncccn1)N(Cc1ccc(C(F)(F)F)cn1)C(=O)c1ccc2nc(N)c(C)cc2c1 [Example 2, 2-amino-3-methyl-N'-(methyl-d3)-N'-(pyrimidin-2-yl)-N-((5-(trifluoromethyl)pyridin-2-yl)methyl)quinoline-6-carbohydrazide]	2.1	820	30	27.33	–	–	–
Cc1cc2cc(C(=O)N(Cc3ccc(C(F)(F)F)cn3)N(C)c3ncccc3F)ccc2nc1N [Example 5, 2-amino-N'-(3-fluoropyridin-2-yl)-N',3-di methyl-N-((5-(trifluoromethyl)pyridin-2-yl)methyl)quinoline-6-carbohydrazide]	1.5	852	42	20.29	–	–	–
CCN(c1ncccn1)N(Cc1ccc(C(F)(F)F)cn1)C(=O)c1ccc2nc(N)c(C)cc2c1 [Example 6, 2-amino-N'-ethyl-3-methyl-N'-(pyrimidin-2-yl)-N-((5-(trifluoromethyl)pyridin-2-yl)methyl)quinoline-6-carbohydrazide]	1.5	1380	95	14.55	–	–	–
CN(c1ccccc1)N(Cc1ccc(C(F)(F)F)cn1)C(=O)c1ccc2nc(N)c3cnn(C)c3c2c1 [Example 15, 4-amino-N',1-dimethyl-N'-phenyl-N-((5-(trifluoromethyl)pyridin-2-yl)methyl)-1H-pyrazolo[4,3-c]quinoline-8-carbohydrazide]	3.7	–	–	18.27	475	26	–
Cc1cc2cc(C(=O)N(Cc3ccc(C(F)(F)F)cn3)n3ccc4cccnc43)ccc2nc1N [Example 21, 2-amino-3-methyl-N-(1H-pyrrolo[2,3-b]pyridin-1-yl)-N-((5-(trifluoromethyl)pyridin-2-yl)methyl)quinoline-6-carboxamide]	1.9	2340	85	27.53	–	–	–
Cc1cc2cc(C(=O)N(Cc3ccc(C(F)(F)F)cn3)N3CCc4cccnc43)ccc2nc1N [Example 22, 2-amino-N-(2,3-dihydro-1H-pyrrolo[2,3-b]pyridin-1-yl)-3-methyl-N-((5-(trifluoromethy 1)pyridin-2-yl)methyl)quinoline-6-carboxamide]	4.3	2290	129	17.78	–	–	–
CN(c1ncccn1)N(Cc1ccc(C(F)(F)F)cn1)C(=O)c1ccc2nc(N)c(C3CC3)cc2c1 [Example 25, 2-amino-3-cyclopropyl-N'-methyl-N'-(pyrimidin-2-yl)-N-((5-(trifluoromethyl)pyridin-2-yl)methyl)quinoline-6-carbohydrazide]	2	2820	110	25.64	–	–	–
CC(C)c1cc2cc(C(=O)N(Cc3ccc(C(F)(F)F)cn3)N(C)c3ncccn3)ccc2nc1N [Example 26, 2-amino-3-isopropyl-N'-methyl-N'-(pyrimidin-2-yl)-N-((5-(trifluoromethyl)pyridin-2-yl)methyl)quinoline-6-carbohydrazide]	2.4	9200	444	20.73	–	–	–
CN(C(=O)c1cc2c(cc1F)nc(N)c1cnn(C)c12)N1CCc2nc(Br)ccc21 [Example 32, 4-amino-N-(5-bromo-2,3-dihydro-1H-pyrrolo[3,2-b]pyridin-1-yl)-7-fluoro-N,1-dimethy 1-1H-pyrazolo[4,3-c]quinoline-8-carboxamide]	–	3640	122	29.85	–	–	2.5
Cc1cc2cc(C(=O)N(Cc3ccc(C(F)(F)F)cn3)N(C)c3nccs3)ccc2nc1N [Example 33, 2-amino-N',3-dimethyl-N'-(thiazol-2-yl)-N-((5-(trifluoromethyl)pyridin-2-yl)methyl)quinoline-6-carbohydrazide]	3.3	2480	125	19.87	–	–	–
Cc1cc2nc(N)c3cnn(C)c3c2cc1C(=O)N1CCCN1c1ncc(-c2cnc3c(cnn3C)c2)cc1F [Example 482, (4-amino-1,7-dimethyl-1H-pyrazolo[4,3-c]quinolin-8-yl)(2-(3-fluoro-5-(1-methyl-1H-pyrazolo[3,4-b]pyridin-5-yl)pyridin-2-yl)pyrazolidin-1-yl)methanone]	–	5370	60	89.47	–	–	–
Cc1cc2nc(N)c3cnn(C)c3c2cc1C(=O)N1CCCN1c1ncc(-c2ccsc2)cc1F [Example 483, (4-amino-1,7-dimethyl-1H-pyrazolo[4,3-c]quinolin-8-yl)(2-(3-fluoro-5-(thien-3-yl)pyridin-2-yl)pyrazolidin-1-yl)methanone]	–	4170	100	41.72	–	–	–
Cc1cc2nc(N)c3cnn(C)c3c2cc1C(=O)N1CCCN1c1ncc(C2CCN(C)CC2)cc1F [Example 485, (4-amino-1,7-dimethyl-1H-pyrazolo[4,3-c]quinolin-8-yl)(2-(3-fluoro-5-(1-methylpiperid-4-yl)pyridin-2-yl)pyrazolidin-1-yl)methanone]	–	4830	415	11.64	–	–	–
